Experimental findings from US5637690A, “Sulfate of n-acetylneuraminic acid homopolymer and processes for making and using the same” (Marukin Shoyu Co., Ltd., priority 1993, dated 1997) are described below.

For one series, the system named is MT-4 cell. The experiment in a line: Cytotoxicity on MT-4 cells (Pharmacological Tests 1, 2 and 3). The conditions noted are these: for Toxicity: Table 4; for Cytotoxicity: Table 2. The arrangement: key to Toxicity: --: no cytotoxicity or no anti-HIV activity; key to Cytotoxicity: --: no toxicity. It counts as cell-based. The protocol: (§1) A medium in which MT-4 cell [Miyoshi I. et al., Gann Monogr., 28, 219-228 (1982)] was included in a proportion of 2×10^5 cell/ml medium (RPMI-1640+10%FCS) was prepared. To each of 500 μl portion of the medium were added sulfated colominic acid obtained from examples 1 and 2 at a concentration shown in table 1. After two hours addition of the esters, HIV was infected to cells in each well in the proportion of 5×10^3 PFU/well. After 4 days from HIV infection, smear of MT-4 cell was prepared to detect HIV antigen positive cells by immunofluorescence (Harada S. et al., Science, 229, 563-566 (1985); Takeuchi Y., et al., Jpn. J. Cancer Res. (Gann), 78, 11-15 (1987)).
(§2) In tables 1 and 3, a sample having a concentration of sulfated colominic acid of zero was regarded as control. In table 2, "--" indicates no toxicity.
A cytotoxicity of sulfated colominic acid was assayed in the same manner as Pharmacological Test 1. Specifically, after MT-4 cell prepared at a concentration of 1×10^5 cell/ml was cultured for 4 days in the presence of a variety of concentrations of sulfated colominic acid, the number of cells was counted. Cytotoxicity was evaluated by calculating a cell survival ratio in each final concentration of sulfated colominic acid taking as 100% the cell survival ratio of control, in which final concentration of sulfated colominic acid is zero.
(§3) In order to determine the minimum number of monomer unit of N-acetylneuraminic acid homopolymer, sulfate esters of formula (I) in which n is 1-6 were produced. A cytotoxicity and an anti-HIV activity of each sulfate ester were determined in the same manner as pharmacological tests 1 and 2.

A further series relates to HIV. As to the kind of experiment: Anti-HIV activity: HIV antigen positive MT-4 cells by immunofluorescence (Pharmacological Tests 1 and 3). It counts as cell-based. As for the experimental part:
as §1
An anti-HIV activity of colominic acid which is a starting material in place of sulfated colominic acid was determined in the same manner as above.
as §2, §3

Where only a bound is given, the exact number is not on record here.

Take “sulfate ester of N-acetylneuraminic acid hexamer [DP-6-S]”: the Toxicity entry in the series on MT-4 cell (final concentration 0.1 μg/ml), in the series with MT-4 cell (final concentration 0.3 μg/ml), in the series on MT-4 cell (final concentration 1 μg/ml), in the series with MT-4 cell (final concentration 3 μg/ml), with MT-4 cell (final concentration 10 μg/ml) and with MT-4 cell (final concentration 30 μg/ml) was “--” each time. Besides, the Toxicity entry in the series on MT-4 cell (final concentration 100 μg/ml) was “--”. The substance also registered an IC50 with HIV (Table 4, anti-HIV, MT-4 cells) of 20 µg/mL. Besides, the Cell infection ratio was above 95% with HIV (Table 4, final concentration 0.1 μg/ml); above 95% with HIV (Table 4, final concentration 0.3 μg/ml); above 95% with HIV (Table 4, final concentration 1 μg/ml); above 95% with HIV (Table 4, final concentration 3 μg/ml); 80% in the series with HIV (Table 4, final concentration 10 μg/ml); 30% in the series with HIV (Table 4, final concentration 30 μg/ml). Moreover, the Cell infection ratio in the series with HIV (Table 4, final concentration 100 μg/ml) is on record as below 5%.
As to colominic acid [reference compound], the Cytotoxicity result in the series with MT-4 cell (final concentration 1 μg/ml), with MT-4 cell (final concentration 3 μg/ml), in the series with MT-4 cell (final concentration 10 μg/ml), with MT-4 cell (final concentration 30 μg/ml) and in the series on MT-4 cell (final concentration 100 μg/ml) was “--” each time. In addition, in the series on HIV (Table 2, 1-100 μg/ml), the “anti-HIV activity (in words)” value is recorded as “does not have an anti-HIV activity”. For the same substance, the “Cell infection ratio” value with HIV (Table 2, final concentration 1 μg/ml) is recorded as above 95%; in the series on HIV (Table 2, final concentration 3 μg/ml), above 95%; in the series on HIV (Table 2, final concentration 10 μg/ml), above 95%; with HIV (Table 2, final concentration 30 μg/ml) it was above 95%; with HIV (Table 2, final concentration 100 μg/ml), above 95%.

The IC50 is the point on the concentration scale where inhibition reaches its midpoint.
